Results from article PMC3504033, “Inhibition of Angiotensin-Converting Enzyme Activity by Flavonoids: Structure-Activity Relationship Studies” (PLoS ONE, 2012).
pIC50: −log10 of the molar value. Where two headings read alike, the source gives them in different places. Each block holds one compound with its values, some of them ahead of it.

Key:
[1] = target: T1, Angiotensin-I Converting Enzyme from rabbit lung (Oryctolagus cuniculus, UniProt P12822); assay: ACE-inhibitory (ACEI) activity, fluorimetric assay with o-Abz-Gly-p-Phe(NO2)-Pro substrate; assay type: biochemical; conditions: for relative IC50 ratio: IC50 relative to luteolin (1); for pIC50: technical and biological triplicate, read-out: IC50 value (concentration that inhibits ACE activity by 50%); for change of ACEI activity on structural change, vs. luteolin: compared with luteolin (Figure 3); for inhibition at 100 µM / inhibition at 500 µM: 0.5 h; for inhibition at 100 µM: mean of three experiments (Figure 2A)
T1 construct: Angiotensin-I Converting Enzyme from rabbit lung; purchased Sigma (Barcelona, Spain); host or cells: rabbit lung tissue
T1 sequence (P12822 34-1310): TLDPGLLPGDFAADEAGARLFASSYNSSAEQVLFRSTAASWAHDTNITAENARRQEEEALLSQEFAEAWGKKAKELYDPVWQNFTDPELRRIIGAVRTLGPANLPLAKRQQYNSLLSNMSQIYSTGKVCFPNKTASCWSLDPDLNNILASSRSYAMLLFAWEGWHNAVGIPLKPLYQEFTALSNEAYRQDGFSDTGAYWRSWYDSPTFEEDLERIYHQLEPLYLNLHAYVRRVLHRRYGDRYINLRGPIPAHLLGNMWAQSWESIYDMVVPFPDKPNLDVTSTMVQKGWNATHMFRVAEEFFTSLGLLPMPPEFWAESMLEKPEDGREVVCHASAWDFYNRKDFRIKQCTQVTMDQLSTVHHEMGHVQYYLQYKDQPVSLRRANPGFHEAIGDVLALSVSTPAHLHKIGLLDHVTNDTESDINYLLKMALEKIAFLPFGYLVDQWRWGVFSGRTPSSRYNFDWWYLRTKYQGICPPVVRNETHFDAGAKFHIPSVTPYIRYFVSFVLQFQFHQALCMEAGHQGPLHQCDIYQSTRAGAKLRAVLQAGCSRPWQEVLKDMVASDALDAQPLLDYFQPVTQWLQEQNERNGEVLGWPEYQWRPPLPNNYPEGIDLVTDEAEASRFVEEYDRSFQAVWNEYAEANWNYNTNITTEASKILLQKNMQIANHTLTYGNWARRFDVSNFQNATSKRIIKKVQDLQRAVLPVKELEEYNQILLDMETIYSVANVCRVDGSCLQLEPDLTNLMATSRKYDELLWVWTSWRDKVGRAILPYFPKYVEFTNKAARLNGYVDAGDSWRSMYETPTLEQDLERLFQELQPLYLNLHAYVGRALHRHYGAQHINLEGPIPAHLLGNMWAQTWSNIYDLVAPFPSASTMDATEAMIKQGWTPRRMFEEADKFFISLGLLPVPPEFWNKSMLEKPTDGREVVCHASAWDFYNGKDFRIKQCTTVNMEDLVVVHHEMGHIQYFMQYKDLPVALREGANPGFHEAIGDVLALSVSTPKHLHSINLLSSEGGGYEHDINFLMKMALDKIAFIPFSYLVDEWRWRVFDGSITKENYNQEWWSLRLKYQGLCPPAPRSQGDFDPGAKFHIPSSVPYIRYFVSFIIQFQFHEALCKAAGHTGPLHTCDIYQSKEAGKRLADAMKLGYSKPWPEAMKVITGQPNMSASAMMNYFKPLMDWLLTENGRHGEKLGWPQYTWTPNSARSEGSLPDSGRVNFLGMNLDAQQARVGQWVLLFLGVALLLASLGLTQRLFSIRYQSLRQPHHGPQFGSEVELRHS
Text: o-aminobenzoylglycyl-p-nitro-phenylalanylproline (o-ABz-Gly-Phe(NO2)-Pro) was purchased from Bachem Feinchemikalien (Bubendorf, Switzerland). Five units of Angiotensin-I Converting Enzyme from rabbit lung and ZnCl2 were obtained from Sigma (Barcelona, Spain). […] Flavonoids were solubilized in dimethyl sulfoxide (DMSO) and prepared daily. In all experiments, the final concentration of DMSO was 0.4%. Distilled water was obtained from a Millipore Milli-Q® system.
Flavonoid solutions (100 and 500 µM) were prepared in DMSO (0.4%) daily. The 0.1 U/mL ACE solution stock was prepared in glycerol: water (1∶1), aliquoted and stored at −20°C. The 0.1 µM ZnCl2 stock solution was prepared and stored at 4°C. The ACE working solution was prepared daily by diluting it in 150 mM Tris buffer (pH 8.3) containing 0.1 µM ZnCl2.
ACEI activity was measured by a fluorimetric assay following the method of Sentandreu and Toldrá [43] with some modifications. […] Fluorescence was measured after 30 min in 96-well microplates (Thermo Scientific, Rochester, NY) using a multiscan microplate fluorimeter (Biotek. FL×800). Microplates (Thermo Scientific, Rochester, NY) were used in this assay. The excitation and emission wavelengths were 360 and 430 nm, respectively. The activity of each sample was tested in technical and biological triplicate.
The ACEI activity was calculated using the following formula: [drawing 1] where A is the fluorescence without the flavonoid solution, B is the fluorescence without ACE and C is the fluorescence in the presence of both ACE and the flavonoid solution. A flavonoid solution of 500 µM was selected on the basis of previous studies, [35], and the concentration of 100 µM was chosen because it is within the physiological concentration range. […] The IC50 of each selected flavonoid was tested in technical and biological triplicate. The results from three experiments are expressed as the mean ± SD and were performed in different platelet samples.

ACE N domain = tested on: ACE N domain; design: method as in PMID 11303049; conditions: ACE inhibition with N-domain-specific inhibitor; cited from earlier work
[2] = 100 µM flavonoid, purified lung ACE, 37°C, 30 min, read-out: percentage of ACE inhibition
[3] = 500 µM flavonoid, purified lung ACE, 37°C, 30 min, mean of three experiments (Figure 2B), read-out: percentage of ACE inhibition
[4] = read-out: percentage of ACE inhibition, 100 µM flavonoid, purified lung ACE, 37°C, 30 min

Compound: O=c1cc(-c2ccc(O)cc2)oc2cc(O)cc(O)c12.[K] [Apigenin K]
relative IC50 ratio [1]: 8.52
pIC50 [1]: 3.71

Compound: O=c1cc(-c2ccc(O)cc2)oc2cc(O)cc(O)c12 [Apigenin]
change of ACEI activity on structural change, vs. luteolin ([1]; 100 µM): −57%
reduction of ACEI activity relative to luteolin ([1]; 100 µM): 57%
inhibition at 100 µM [1, 2]: 24.7%

inhibition at 100 µM [1, 2]: 7.5%
inhibition at 500 µM [1, 3]: 29%
Compound: Oc1cc(O)c2c(c1)O[C@H](c1ccc(O)c(O)c1)[C@@H](O)C2 [Catechin]

change of ACEI activity on structural change, vs. luteolin ([1]; 100 µM): −78%
reduction of ACEI activity relative to luteolin ([1]; 100 µM): 78%
inhibition at 100 µM [1, 2]: 12.5%
Compound: COc1ccc(-c2cc(=O)c3c(O)cc(O)cc3o2)cc1O [Diosmetin]

inhibition at 100 µM [1, 2]: 9.3%
inhibition at 500 µM [1, 3]: > 30%
Compound: COc1ccc(-c2cc(=O)c3c(O)cc(O[C@@H]4O[C@H](CO[C@@H]5O[C@@H](C)[C@H](O)[C@@H](O)[C@H]5O)[C@@H](O)[C@H](O)[C@H]4O)cc3o2)cc1O [Diosmin]

change of ACEI activity on structural change, vs. luteolin ([1]; 100 µM): −74%
inhibition at 100 µM [1, 2]: 15%
inhibition at 500 µM [1, 3]: > 30%
Compound: Oc1cc(O)c2c(c1)O[C@H](c1ccc(O)c(O)c1)[C@H](O)C2 [Epicatechin]

inhibition at 100 µM [1, 2]: 25.7%
inhibition at 500 µM [1, 3]: > 30%
Compound: O=c1c(-c2ccc(O)cc2)coc2cc(O)cc(O)c12 [Genistein]

inhibition at 100 µM [1, 2]: 0.7%
inhibition at 500 µM [1, 3]: > 30%
Compound: COc1ccc([C@@H]2CC(=O)c3c(O)cc(O)cc3O2)cc1O [Hesperetin]

Compound: COc1ccc(C2CC(=O)c3c(O)cc(OC4OC(COC5OC(C)C(O)C(O)C5O)C(O)C(O)C4O)cc3O2)cc1O (centres unmarked) [Hesperidin]
inhibition at 100 µM [1, 4]: 0%
inhibition at 500 µM ([1]; read-out: percentage of ACE inhibition, 500 µM flavonoid, purified lung ACE, 37°C, 30 min, mean of three experiments (Figure 2B)): 17%

inhibition at 100 µM [1, 2]: > 30%
relative IC50 ratio [1]: 7.74
increase in the IC50 relative to quercetin ([1]; relative to quercetin): 4 fold
pIC50 [1]: 3.75
Compound: O=c1c(O)c(-c2ccc(O)cc2)oc2cc(O)cc(O)c12 [Kaempferol]

relative IC50 ratio [1]: 1
pIC50 [1]: 4.64
Compound: O=c1cc(-c2ccc(O)c(O)c2)oc2cc(O)cc(O)c12 [Luteolin]

Compound: O=C1C[C@@H](c2ccc(O)cc2)Oc2cc(O)cc(O)c21.[K] [Naringenin K]
percentage of ACE inhibition ([1]; 500 µM flavonoid, purified lung ACE, 37°C, 30 min, mean of three experiments (Figure 2B), listed as narigenin K): higher than 30%

Compound: O=C1C[C@@H](c2ccc(O)cc2)Oc2cc(O)cc(O)c21 [Naringenin]
change of ACEI activity on structural change, vs. apigenin ([1]; 100 µM, compared with apigenin (Figure 3)): −91%
reduction of ACEI activity vs. apigenin ([1]; 100 µM, vs. apigenin): 91%
inhibition at 100 µM [1, 2]: 2.3%
inhibition at 500 µM [1, 3]: 22.3%

inhibition at 100 µM [1, 2]: 4.5%
inhibition at 500 µM [1, 3]: 23.3%
Compound: C[C@@H]1O[C@@H](O[C@H]2[C@H](Oc3cc(O)c4c(c3)O[C@H](c3ccc(O)cc3)CC4=O)O[C@H](CO)[C@@H](O)[C@@H]2O)[C@H](O)[C@H](O)[C@H]1O [Naringin]

Compound: O=c1c(O)c(-c2ccc(O)c(O)c2)oc2cc(O)cc(O)c12 [Quercetin]
change of ACEI activity on structural change, vs. luteolin ([1]; 100 µM): −44%
inhibition at 100 µM [1, 4]: > 30%

Compound: CC(=O)N[C@@H](CC(=O)O)C(=O)N[C@@H](Cc1ccccc1)P(=O)(O)C[C@@H](C)C(=O)N[C@@H](C)C(N)=O [RXP407]
effect on blood pressure regulation (ACE N domain): no effect on blood pressure regulation

inhibition at 100 µM [1, 2]: > 30%
relative IC50 ratio [1]: 7.96
pIC50 [1]: 3.74
Compound: C[C@@H]1O[C@@H](O[C@H]2[C@H](Oc3cc(O)c4c(=O)cc(-c5ccc(O)cc5)oc4c3)O[C@H](CO)[C@@H](O)[C@@H]2O)[C@H](O)[C@H](O)[C@H]1O [Rhoifolin, apigenin 7-O-glycoside]

change of ACEI activity on structural change, vs. luteolin ([1]; 100 µM): -36%
inhibition at 100 µM [1, 2]: > 30%
relative IC50 ratio [1]: 2.78
pIC50 [1]: 4.19
Compound: C[C@@H]1O[C@@H](OC[C@H]2O[C@@H](Oc3c(-c4ccc(O)c(O)c4)oc4cc(O)cc(O)c4c3=O)[C@H](O)[C@@H](O)[C@@H]2O)[C@H](O)[C@H](O)[C@H]1O [Rutin, quercetin 3-O-glycoside]
